Measurements from ChEMBL document CHEMBL5500384, “New synergistic benzoquinone scaffolds as inhibitors of mycobacterial cytochrome bc1 complex to treat multi-drug resistant tuberculosis” (Eur J Med Chem, 2024).

Key:
[1] = test system: Mycobacterium tuberculosis; assay: Antitubercular activity against Mycobacterium tuberculosis H37Rv incubated for 5 days by microtiter plate method; format: functional; conditions: 120 h, time 5 day
[2] = Acute toxicity in Albino mouse assessed as change in serum creatine level at 50 to 2000 mg/kg, po measured after 14 days (reference value: 0.9 mg/dl); format: organism-based; conditions: in vivo, 336 h, dose 50-2000 mg/kg, time 14 day
[3] = Renal toxicity in Albino mouse assessed as structural absorbability abnormalities at 50 to 2000 mg/kg, po measured after 14 days; format: organism-based; conditions: in vivo, 336 h, dose 50-2000 mg/kg, time 14 day
[4] = Acute toxicity in Albino mouse assessed as change in lymphocytes at 50 to 2000 mg/kg, po measured after 14 days (reference value: 21%); format: organism-based; conditions: in vivo, 336 h, dose 50-2000 mg/kg, time 14 day
[5] = Renal toxicity in Albino mouse assessed as change in renal tubules at 50 to 2000 mg/kg, po measured after 14 days; format: organism-based; conditions: in vivo, 336 h, dose 50-2000 mg/kg, time 14 day
[6] = Cytotoxicity against african green monkey Vero cells assessed as cell viability at 6.25 ug/ml by MTT assay; format: toxicity, cell-based; conditions: chlorocebus sabaeus, at 6.25 µg/mL, read-out: Activity
[7] = Cytotoxicity against african green monkey Vero cells assessed as cell viability at 50 ug/ml by MTT assay; format: toxicity, cell-based; conditions: chlorocebus sabaeus, at 50 µg/mL, read-out: Activity
[8] = Pulmonary toxicity in Albino mouse assessed as change in bronchi structure at 50 to 2000 mg/kg, po measured after 14 days; format: organism-based; conditions: in vivo, 336 h, dose 50-2000 mg/kg, time 14 day
[9] = Acute toxicity in Albino mouse assessed as change in ESR at 50 to 2000 mg/kg, po measured after 14 days (reference value: 10 millimeter); format: organism-based; conditions: in vivo, 336 h, dose 50-2000 mg/kg, time 14 day
[10] = Cytotoxicity against african green monkey Vero cells assessed as cell viability at 100 ug/ml by MTT assay; format: toxicity, cell-based; conditions: chlorocebus sabaeus, at 100 µg/mL, read-out: Activity
[11] = Acute toxicity in Albino mouse assessed as change in SGPT count at 50 to 2000 mg/kg, po measured after 14 days (reference value: 52 IU/L); format: organism-based; conditions: in vivo, 336 h, dose 50-2000 mg/kg, time 14 day
[12] = Pulmonary toxicity in Albino mouse assessed as appearance of cilia at 50 to 2000 mg/kg, po measured after 14 days; format: organism-based; conditions: in vivo, 336 h, dose 50-2000 mg/kg, time 14 day
[13] = Pulmonary toxicity in Albino mouse assessed as change in squamous pneumocytes at 50 to 2000 mg/kg, po measured after 14 days; format: organism-based; conditions: in vivo, 336 h, dose 50-2000 mg/kg, time 14 day
[14] = Pulmonary toxicity in Albino mouse assessed as change in alveoli structure at 50 to 2000 mg/kg, po measured after 14 days; format: organism-based; conditions: in vivo, 336 h, dose 50-2000 mg/kg, time 14 day
[15] = Acute toxicity in po dosed Albino mouse assessed as mortality after 14 days; format: organism-based; conditions: in vivo, time 14 day
[16] = Cytotoxicity against african green monkey Vero cells assessed as cell viability at 25 ug/ml by MTT assay; format: toxicity, cell-based; conditions: chlorocebus sabaeus, at 25 µg/mL, read-out: Activity
[17] = Pulmonary toxicity in Albino mouse assessed as appearance of goblet cells at 50 to 2000 mg/kg, po measured after 14 days; format: organism-based; conditions: in vivo, 336 h, dose 50-2000 mg/kg, time 14 day
[18] = Hepatotoxicity in Albino mouse assessed as change in bile duct at 50 to 2000 mg/kg, po measured after 14 days; format: toxicity, organism-based, Liver; conditions: in vivo, 336 h, dose 50-2000 mg/kg, time 14 day
[19] = Renal toxicity in Albino mouse assessed as change in proximal convoluted tubules at 50 to 2000 mg/kg, po measured after 14 days; format: organism-based; conditions: in vivo, 336 h, dose 50-2000 mg/kg, time 14 day
[20] = Acute toxicity in Albino mouse assessed as change in total leucocyte count at 50 to 2000 mg/kg, po measured after 14 days (reference value: 7400 mm3); format: organism-based; conditions: in vivo, 336 h, dose 50-2000 mg/kg, time 14 day
[21] = Hepatotoxicity in Albino mouse assessed as change in central vein at 50 to 2000 mg/kg, po measured after 14 days; format: toxicity, organism-based; conditions: in vivo, 336 h, dose 50-2000 mg/kg, time 14 day
[22] = Acute toxicity in Albino mouse assessed as change in neutrophils at 50 to 2000 mg/kg, po measured after 14 days (reference value: 75%); format: organism-based; conditions: in vivo, 336 h, dose 50-2000 mg/kg, time 14 day
[23] = Pulmonary toxicity in Albino mouse assessed as change in alveolar sacs at 50 to 2000 mg/kg, po measured after 14 days; format: organism-based; conditions: in vivo, 336 h, dose 50-2000 mg/kg, time 14 day
[24] = Acute toxicity in Albino mouse assessed as change in eosinophils at 50 to 2000 mg/kg, po measured after 14 days (reference value: 3%); format: organism-based; conditions: in vivo, 336 h, dose 50-2000 mg/kg, time 14 day
[25] = Acute toxicity in Albino mouse assessed as mortality at 300 mg/kg, po after 5 to 8 hrs; format: organism-based; conditions: in vivo, time 5-8 hrs
[26] = Hepatotoxicity in Albino mouse assessed as change in hepatic artery at 50 to 2000 mg/kg, po measured after 14 days; format: toxicity, organism-based, Liver; conditions: in vivo, 336 h, dose 50-2000 mg/kg, time 14 day
[27] = Acute toxicity in Albino mouse assessed as change in platelet count at 50 to 2000 mg/kg, po measured after 14 days (reference value: 3.24 mm3); format: organism-based; parameters: unit not given here; conditions: in vivo, 336 h, dose 50-2000 mg/kg, time 14 day
[28] = Renal toxicity in Albino mouse assessed as change in Bowman's capsule at 50 to 2000 mg/kg, po measured after 14 days; format: organism-based; conditions: in vivo, 336 h, dose 50-2000 mg/kg, time 14 day
[29] = Renal toxicity in Albino mouse assessed as change in renal corpuscles at 50 to 2000 mg/kg, po measured after 14 days; format: organism-based; conditions: in vivo, 336 h, dose 50-2000 mg/kg, time 14 day
[30] = Acute toxicity in Albino mouse assessed as mortality at 2000 mg/kg, po after 2 to 4 hrs; format: organism-based; conditions: in vivo, time 2-4 hrs
[31] = Acute toxicity in Albino mouse assessed as change in SGOT count at 50 to 2000 mg/kg, po measured after 14 days (reference value: 42 IU/L); format: organism-based; conditions: in vivo, 336 h, dose 50-2000 mg/kg, time 14 day
[32] = Acute toxicity in Albino mouse assessed as change in serum urea level at 50 to 2000 mg/kg, po measured after 14 days (reference value: 46 mg/dl); format: organism-based; conditions: in vivo, 336 h, dose 50-2000 mg/kg, time 14 day
[33] = Acute toxicity in Albino mouse assessed as mortality at 50 mg/kg, po after 14 days; format: organism-based; conditions: in vivo, 336 h, time 14 day
[34] = Acute toxicity in Albino mouse assessed as change in RBC count measured per million cells at 50 to 2000 mg/kg, po measured after 14 days (reference value: 9.15 microL); format: organism-based, Erythrocyte; conditions: in vivo, 336 h, dose 50-2000 mg/kg, time 14 day
[35] = Cytotoxicity against african green monkey Vero cells assessed as cell viability at 12.5 ug/ml by MTT assay; format: toxicity, cell-based; conditions: chlorocebus sabaeus, at 12.5 µg/mL, read-out: Activity
[36] = Hepatotoxicity in Albino mouse assessed as change in portal vein at 50 to 2000 mg/kg, po measured after 14 days; format: toxicity, organism-based; conditions: in vivo, 336 h, dose 50-2000 mg/kg, time 14 day
[37] = Acute toxicity in Albino mouse assessed as change in ALP level at 50 to 2000 mg/kg, po measured after 14 days (reference value: 28 IU/L); format: organism-based; conditions: in vivo, 336 h, dose 50-2000 mg/kg, time 14 day
[38] = Renal toxicity in Albino mouse assessed as change in distal convoluted tubules at 50 to 2000 mg/kg, po measured after 14 days; format: organism-based; conditions: in vivo, 336 h, dose 50-2000 mg/kg, time 14 day
[39] = Renal toxicity in Albino mouse assessed as extravasation of RBC at 50 to 2000 mg/kg, po measured after 14 days; format: organism-based, Erythrocyte; conditions: in vivo, 336 h, dose 50-2000 mg/kg, time 14 day
[40] = Cytotoxicity against african green monkey Vero cells by MTT assay; format: toxicity, cell-based; conditions: chlorocebus sabaeus
[41] = Hepatotoxicity in Albino mouse assessed as change in portal tracks at 50 to 2000 mg/kg, po measured after 14 days; format: toxicity, organism-based; conditions: in vivo, 336 h, dose 50-2000 mg/kg, time 14 day
[42] = Acute toxicity in Albino mouse assessed as change in monocytes at 50 to 2000 mg/kg, po measured after 14 days (reference value: 1%); format: organism-based; conditions: in vivo, 336 h, dose 50-2000 mg/kg, time 14 day
[43] = Acute toxicity in Albino mouse assessed as change in LDH level at 50 to 2000 mg/kg, po measured after 14 days (reference value: 1052 IU/L); format: organism-based; conditions: in vivo, 336 h, dose 50-2000 mg/kg, time 14 day
[44] = Acute toxicity in Albino mouse assessed as change in hemoglobin level at 50 to 2000 mg/kg, po measured after 14 days (reference value: 12.8 g/dl); format: organism-based; conditions: in vivo, 336 h, dose 50-2000 mg/kg, time 14 day
[45] = Cytotoxicity against african green monkey Vero cells assessed as cell viability at 3.125 ug/ml by MTT assay; format: toxicity, cell-based; conditions: chlorocebus sabaeus, at 3.125 µg/mL, read-out: Activity
[46] = Renal toxicity in Albino mouse assessed as change in tubular capillaries at 50 to 2000 mg/kg, po measured after 14 days; format: organism-based; conditions: in vivo, 336 h, dose 50-2000 mg/kg, time 14 day

## O=C1C(Cl)=C(N2C(=O)C(Cl)C2c2ccccc2)C(=O)c2ccccc21 (stereo unspecified)
[1]
  MIC: 6.25 µg/mL

## CCOc1cc(/C=N/C2=C(Cl)C(=O)c3ccccc3C2=O)ccc1O
[1]
  MIC: 6.25 µg/mL

## O=C1C(Cl)=C(N2C(=O)C(Cl)C2c2ccc([N+](=O)[O-])cc2)C(=O)c2ccccc21 (stereo unspecified)
[2]
  Activity: 0.33 mg/dL
[3]
  Activity: Non-Toxic
[4]
  Activity: 39%
[5]
  Activity: Non-Toxic
[6]
  viability at 6.25 ug/ml: 100%
[7]
  viability at 50 ug/ml: 21.4%
[8]
  Activity: Non-Toxic
[9]
  Activity: 15 millimeter/hr
[10]
  viability at 100 ug/ml: 9.6%
[11]
  Activity: 43.21 IU/L
[12]
  Activity: Non-Toxic
[13]
  Activity: Non-Toxic
[14]
  Activity: Non-Toxic
[15]
  LD50 at 336 h: 50 mg/kg
[16]
  viability at 25 ug/ml: 46.2%
[17]
  Activity: Non-Toxic
[18]
  Activity: Non-Toxic
[19]
  Activity: Non-Toxic
[20]
  Activity: 8800 mm3
[21]
  Activity: Non-Toxic
[1]
  MIC: 30 µM
[22]
  Activity: 72%
[23]
  Activity: Non-Toxic
[24]
  Activity: 4%
[25]
  Activity: Toxic
[26]
  Activity: Non-Toxic
[27]
  Activity: 5.95
[28]
  Activity: Non-Toxic
[29]
  Activity: Non-Toxic
[30]
  Activity: Toxic
[31]
  Activity: 168.42 IU/L
[32]
  Activity: 37.75 mg/dL
[33]
  Activity: Non-Toxic
[34]
  Activity: 9.85
[35]
  viability at 12.5 ug/ml: 78%
[36]
  Activity: Non-Toxic
[37]
  Activity: 429.54 IU/L
[38]
  Activity: Non-Toxic
[39]
  Activity: Non-Toxic
[40]
  Activity: Dose-Dependent Effect
[41]
  Activity: Non-Toxic
[42]
  Activity: 1%
[43]
  Activity: 505 IU/L
[44]
  Activity: 13.2 g/dL
[45]
  viability at 3.125 ug/ml: 100%
[46]
  Activity: Non-Toxic

## O=C1C(Cl)=C(N2C(=O)C(Cl)C2c2cccc([N+](=O)[O-])c2)C(=O)c2ccccc21 (stereo unspecified)
[1]
  MIC: 12.5 µg/mL

## O=C1C(Cl)=C(/N=C/c2ccccc2O)C(=O)c2ccccc21
[1]
  MIC: 12.5 µg/mL

## O=C1C(Cl)=C(/N=C/c2ccc([N+](=O)[O-])cc2)C(=O)c2ccccc21
[1]
  MIC: 12.5 µg/mL
